According to US10582709B2, “Butyrolactones as herbicides” (FMC Corporation, priority 2015, dated 2020):

Key:
Format in all cases: in vivo
[1] = tested on: barnyardgrass (Echinochloa crus-galli); assay: Test B flooded paddy test, barnyardgrass; conditions: 500 g ai/ha; applied to paddy water at 2-leaf stage; 13 to 15 d; scale 0 no effect to 100 complete control
How it was run: (§1)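 Plants at the 2-leaf stage were flooded to 3 cm above soil, and test compounds were applied directly into the paddy water, which was held at that depth throughout. After 13 to 15 d in a greenhouse, injury was rated visually against untreated controls on a 0–100 scale (0 no effect, 100 complete control).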

[2] = tested on: ducksalad (Heteranthera limosa); assay: Test B flooded paddy test, ducksalad; conditions: 500 g ai/ha; applied to paddy water at 2-leaf stage; 13 to 15 d; scale 0 no effect to 100 complete control
How it was run: as §1

[3] = tested on: rice (Oryza sativa); assay: Test B flooded paddy test, rice; conditions: 500 g ai/ha; applied to paddy water at 2-leaf stage; 13 to 15 d; scale 0 no effect to 100 complete control
How it was run: as §1

[4] = tested on: sedge, umbrella (small-flower umbrella sedge, Cyperus difformis); assay: Test B flooded paddy test, umbrella sedge; conditions: 500 g ai/ha; applied to paddy water at 2-leaf stage; 13 to 15 d; scale 0 no effect to 100 complete control
How it was run: as §1

[5] = tested on: barnyardgrass (Echinochloa crus-galli); assay: Test A preemergence, barnyardgrass; conditions: visual rating after approx. 10 d, 0 to 100 scale, 0 no effect, 100 complete control
How it was run: (§2)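 Herbicidal effect scored by eye on 0–100 (complete control = 100) about 10 d after spraying in a greenhouse. Formulation was a non-phytotoxic solvent blend with surfactant, applied to soil at seeding or to seedlings at the one- to two-leaf stage.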

[6] = tested on: kochia (Kochia scoparia); assay: Test A preemergence, kochia; conditions: visual rating after approx. 10 d, 0 to 100 scale, 0 no effect, 100 complete control
How it was run: as §2

[7] = tested on: ragweed (common ragweed, Ambrosia elatior); assay: Test A preemergence, ragweed; conditions: visual rating after approx. 10 d, 0 to 100 scale, 0 no effect, 100 complete control
How it was run: as §2

[8] = tested on: ryegrass, Italian (Italian ryegrass, Lolium multiflorum); assay: Test A preemergence, Italian ryegrass; conditions: visual rating after approx. 10 d, 0 to 100 scale, 0 no effect, 100 complete control
How it was run: as §2

[9] = tested on: foxtail, giant (giant foxtail, Setaria faberii); assay: Test A preemergence, giant foxtail; conditions: visual rating after approx. 10 d, 0 to 100 scale, 0 no effect, 100 complete control
How it was run: as §2

[10] = tested on: pigweed (Amaranthus retroflexus); assay: Test A preemergence, pigweed; conditions: visual rating after approx. 10 d, 0 to 100 scale, 0 no effect, 100 complete control
How it was run: as §2

[11] = tested on: barnyardgrass (Echinochloa crus-galli); assay: Test A postemergence, barnyardgrass; conditions: visual rating after approx. 10 d, 0 to 100 scale, 0 no effect, 100 complete control
How it was run: as §2

[12] = tested on: kochia (Kochia scoparia); assay: Test A postemergence, kochia; conditions: visual rating after approx. 10 d, 0 to 100 scale, 0 no effect, 100 complete control
How it was run: as §2

[13] = tested on: ragweed (common ragweed, Ambrosia elatior); assay: Test A postemergence, ragweed; conditions: visual rating after approx. 10 d, 0 to 100 scale, 0 no effect, 100 complete control
How it was run: as §2

[14] = tested on: ryegrass, Italian (Italian ryegrass, Lolium multiflorum); assay: Test A postemergence, Italian ryegrass; conditions: visual rating after approx. 10 d, 0 to 100 scale, 0 no effect, 100 complete control
How it was run: as §2

[15] = tested on: foxtail, giant (giant foxtail, Setaria faberii); assay: Test A postemergence, giant foxtail; conditions: visual rating after approx. 10 d, 0 to 100 scale, 0 no effect, 100 complete control
How it was run: as §2

[16] = tested on: wheat (Triticum aestivum); assay: Test A postemergence, wheat; conditions: visual rating after approx. 10 d, 0 to 100 scale, 0 no effect, 100 complete control
How it was run: as §2

[17] = tested on: corn (Zea mays); assay: Test A postemergence, corn; conditions: visual rating after approx. 10 d, 0 to 100 scale, 0 no effect, 100 complete control
How it was run: as §2

[18] = tested on: pigweed (Amaranthus retroflexus); assay: Test A postemergence, pigweed; conditions: visual rating after approx. 10 d, 0 to 100 scale, 0 no effect, 100 complete control
How it was run: as §2

[19] = tested on: blackgrass (Alopecurus myosuroides); assay: Test A postemergence, blackgrass; conditions: visual rating after approx. 10 d, 0 to 100 scale, 0 no effect, 100 complete control
How it was run: as §2

[20] = tested on: galium (catchweed bedstraw, Galium aparine); assay: Test A postemergence, galium; conditions: visual rating after approx. 10 d, 0 to 100 scale, 0 no effect, 100 complete control
How it was run: as §2

Compound: O=C(Nc1cccc(F)c1F)C1C(=O)OCC1c1cccc(C(F)(F)F)c1 (racemic) [Compound 12]
- Plant response rating, Flood, Barnyardgrass [1]: 0
- Plant response rating, Flood, Ducksalad [2]: 0
- Plant response rating, Flood, Rice [3]: 0
- Plant response rating, Flood, Sedge, Umbrella [4]: 0
- Plant response rating, Barnyardgrass ([5]; 125 g ai/ha): 20
- Plant response rating, Barnyardgrass ([5]; 500 g ai/ha): 30
- Plant response rating, Kochia ([6]; 125 g ai/ha): 0
- Plant response rating, Kochia ([6]; 500 g ai/ha): 20
- Plant response rating, Ragweed ([7]; 125 g ai/ha): 0
- Plant response rating, Ragweed ([7]; 500 g ai/ha): 0
- Plant response rating, Ryegrass, Italian ([8]; 125 g ai/ha): 0
- Plant response rating, Ryegrass, Italian ([8]; 500 g ai/ha): 20
- Plant response rating, Foxtail, Giant ([9]; 125 g ai/ha): 30
- Plant response rating, Foxtail, Giant ([9]; 500 g ai/ha): 60
- Plant response rating, Pigweed ([10]; 125 g ai/ha): 0
- Plant response rating, Pigweed ([10]; 500 g ai/ha): 0
- Plant response rating, Barnyardgrass ([11]; 125 g ai/ha): 40
- Plant response rating, Barnyardgrass ([11]; 500 g ai/ha): 40
- Plant response rating, Kochia ([12]; 125 g ai/ha): 0
- Plant response rating, Kochia ([12]; 500 g ai/ha): 0
- Plant response rating, Ragweed ([13]; 125 g ai/ha): 0
- Plant response rating, Ragweed ([13]; 500 g ai/ha): 0
- Plant response rating, Ryegrass, Italian ([14]; 125 g ai/ha): 0
- Plant response rating, Ryegrass, Italian ([14]; 500 g ai/ha): 0
- Plant response rating, Foxtail, Giant ([15]; 125 g ai/ha): 30
- Plant response rating, Foxtail, Giant ([15]; 500 g ai/ha): 70
- Plant response rating, Wheat ([16]; 125 g ai/ha): 0
- Plant response rating, Wheat ([16]; 500 g ai/ha): 0
- Plant response rating, Corn ([17]; 125 g ai/ha): 0
- Plant response rating, Corn ([17]; 500 g ai/ha): 0
- Plant response rating, Pigweed ([18]; 125 g ai/ha): 0
- Plant response rating, Pigweed ([18]; 500 g ai/ha): 0
- Plant response rating, Blackgrass ([19]; 125 g ai/ha): 0
- Plant response rating, Blackgrass ([19]; 500 g ai/ha): 0
- Plant response rating, Galium ([20]; 125 g ai/ha): 0
- Plant response rating, Galium ([20]; 500 g ai/ha): 0

Compound: O=C(Nc1cccc(F)c1C(F)(F)F)C1C(=O)OCC1c1cccc(C(F)(F)F)c1 (racemic) [Compound 13]
- Plant response rating, Flood, Barnyardgrass [1]: 0
- Plant response rating, Flood, Ducksalad [2]: 0
- Plant response rating, Flood, Rice [3]: 0
- Plant response rating, Flood, Sedge, Umbrella [4]: 0
- Plant response rating, Barnyardgrass ([5]; 125 g ai/ha): 0
- Plant response rating, Barnyardgrass ([5]; 500 g ai/ha): 0
- Plant response rating, Kochia ([6]; 125 g ai/ha): 0
- Plant response rating, Kochia ([6]; 500 g ai/ha): 0
- Plant response rating, Ragweed ([7]; 125 g ai/ha): 0
- Plant response rating, Ragweed ([7]; 500 g ai/ha): 0
- Plant response rating, Ryegrass, Italian ([8]; 125 g ai/ha): 0
- Plant response rating, Ryegrass, Italian ([8]; 500 g ai/ha): 0
- Plant response rating, Foxtail, Giant ([9]; 125 g ai/ha): 40
- Plant response rating, Foxtail, Giant ([9]; 500 g ai/ha): 70
- Plant response rating, Pigweed ([10]; 125 g ai/ha): 0
- Plant response rating, Pigweed ([10]; 500 g ai/ha): 0
- Plant response rating, Barnyardgrass ([11]; 125 g ai/ha): 0
- Plant response rating, Barnyardgrass ([11]; 500 g ai/ha): 0
- Plant response rating, Kochia ([12]; 125 g ai/ha): 0
- Plant response rating, Kochia ([12]; 500 g ai/ha): 0
- Plant response rating, Ragweed ([13]; 125 g ai/ha): 0
- Plant response rating, Ragweed ([13]; 500 g ai/ha): 0
- Plant response rating, Ryegrass, Italian ([14]; 125 g ai/ha): 0
- Plant response rating, Ryegrass, Italian ([14]; 500 g ai/ha): 0
- Plant response rating, Foxtail, Giant ([15]; 125 g ai/ha): 20
- Plant response rating, Foxtail, Giant ([15]; 500 g ai/ha): 40
- Plant response rating, Wheat ([16]; 125 g ai/ha): 0
- Plant response rating, Wheat ([16]; 500 g ai/ha): 0
- Plant response rating, Corn ([17]; 125 g ai/ha): 0
- Plant response rating, Corn ([17]; 500 g ai/ha): 0
- Plant response rating, Pigweed ([18]; 125 g ai/ha): 0
- Plant response rating, Pigweed ([18]; 500 g ai/ha): 0
- Plant response rating, Blackgrass ([19]; 125 g ai/ha): 0
- Plant response rating, Blackgrass ([19]; 500 g ai/ha): 0
- Plant response rating, Galium ([20]; 125 g ai/ha): 0
- Plant response rating, Galium ([20]; 500 g ai/ha): 0
